Reference: PMC8589628, “Characterization and Antimicrobial Studies of Iturin-Like and Bogorol-Like Lipopeptides From Brevibacillus spp. Strains GI9 and SKDU10” (Frontiers in Microbiology, 2021)
Like-named read-outs stand apart in the source and are kept apart here. Peptide text beside a SMILES is read from it. * marks the point of attachment. X1 = CC(C)CCCCCCCCCCCCC(=O)*

Tests used:
[1] = test system: B. subtilis MTCC 121; assay type: cell-based, Bacillus subtilis
Procedure: The antimicrobial activity of HPLC purified compounds was determined against various test strains including S. aureus MTCC 1430, Vibrio cholera MTCC 3904, Bacillus subtilis MTCC 121, Listeria monocytogenes MTCC 839, C. albicans MTCC 183, C. albicans MTCC 1637, C. albicans MTCC 227, C. tropicalis MTCC 184, C. glabrata MTCC 3019, and C. inconspicua MTCC 1074. Antimicrobial activity was also tested against clinical Candida strains and phytopathogenic fungi viz. Fusarium moniliforme MTCC 158, Alternaria brassicicola MTCC 2102 and Colletotrichum acutatum MTCC 1037. Bacterial and Candida test strains were grown in NB and yeast malt broth (YMB), respectively. Fungal test strains were grown in potato dextrose broth (PDB). Minimum inhibitory concentrations (MICs) of purified compounds were evaluated against test organisms by using a microtiter plate dilution assay. Mid-log-phase test strains (5 × 10^5 CFU/ml) were incubated in a 96-well plate with different concentrations of the lipopeptides for 24–48 h at 37°C (final volume of 200 μl). OD was measured at 600 nm after 24 and 48 h for bacteria and yeast, respectively, using an ELISA microplate reader (Thermo Scientific, United States). MIC against phytopathogenic fungi was determined using the 96-well microtiter plate method ([Sharma et al., 2020]).

[2] = test system: S. aureus MTCC 1430; test: TLC-bioautography assay; assay type: cell-based, Staphylococcus aureus; conditions: 10 μg/ml loaded on TLC silica gel; overlay on NA, 24 h at 37°C
Procedure: Overlay thin-layer chromatography (TLC)-bioautography assay was used to determine the antimicrobial activity of the purified antimicrobial compounds ([Wedge and Nagle, 2000]). For bioautography, the antimicrobial compounds (10 μg/ml) were loaded on TLC silica gel plates in duplicates and were developed in one dimension using a solvent system containing chloroform: […]: water (65:12:4 v/v). TLC plate was cut into two vertical parts after running. One part of the TLC was used for direct detection of antimicrobial activity by overlaying it on NA containing S. aureus MTCC 1430 (about 10^6 cells ml^–1). After 1 h diffusion at 4°C, the TLC silica plate was removed and the NA plate was incubated for 24 h at 37°C. Other part of the TLC was sprayed with phosphomolybdic acid as a staining reagent for lipids.

[3] = Collapse drop assay (CDA); assay type: physicochemical; conditions: 5 μl of 10 μg/ml stock on mineral oil droplet, observed after 1 min
Procedure: Collapse Drop Assay (CDA) was performed as mentioned earlier ([Sharma et al., 2020]). To a well of 96 well microtiter plate, 2 μl mineral oil was added and equilibrated at 37°C for 24 h. Purified lipopeptide (5 μl of 10 μg/ml stock) was applied to the top of oil droplet and its shape was observed after 1 min with a magnifying glass for collapse and spread due to reduction in surface tension. Water and triton X-100 served as controls ([Youssef et al., 2004]). To determine critical micelle concentration (CMC), different concentrations of purified lipopeptides were prepared and surface tension was measured on a tensiometer (KRUSS K10T, Germany) at room temperature. The values for CMC were estimated by plotting surface tension as a function of concentration of lipopeptides. A point of intersection was located between the pre and post CMC data plot. The mean value of triplicate experiments was used to increase the accuracy. Concentrations ranging from 0.1 to 1000 μg/ml were used to determine surface tension on a tensiometer.

[4] = test system: C. albicans MTCC 183; test: Time kill assay; assay type: cell-based, Candida albicans; conditions: for Time to complete killing: C. albicans MTCC 183, 5X MIC, in PBS, CFU count
Procedure: Killing kinetics of purified compounds was performed using cells of S. aureus MTCC 1430, V. cholerae MTCC 3904, and C. albicans MTCC 183. Test strains were grown to obtain OD between 0.2 and 0.3 (OD 600 nm), centrifuged, and washed thrice with sterile PBS. Pellets were suspended in PBS and treated with different concentrations of active compounds. Cells after treatment were washed, resuspended, and serially diluted cell suspensions were plated on NA plates. After overnight incubation at 37°C, CFU were recorded ([Singh et al., 2021]).

[5] = test system: V. cholerae MTCC 3904; test: TEM of treated cells; assay type: cell-based; conditions: V. cholerae MTCC 3904, 1X MIC, 30 min, 37°C
Procedure: (§1) Effect of antimicrobial compounds on cell membrane of test organisms was determined by transmission electron microscopy (TEM). Test strains, S. aureus MTCC 1430, V. cholerae MTCC 3904, and C. albicans MTCC 183 were cultured to mid-log phase, washed, and re-suspended in 1X PBS (OD 600 nm 0.2). The cell suspensions were incubated (37°C) with 1X MIC of purified antimicrobial compounds for 30 min. Cells after treatment were centrifuged, washed twice with PBS. For TEM, cells of S. aureus MTCC 1430 and V. cholerae MTCC 3904 were subjected to negative stain with 0.1% (w/v) sodium phosphotungstate (PTA, Sigma, United States) in water for 1 min, on a carbon-coated copper grid with 300 mesh (Polyscience, United States) and observed under transmission electron microscope (JEOL JEM 2100, United States) ([Raje et al., 2006]). For SEM, C. albicans MTCC 183 cells were immobilized on poly L-lysine glazed glass slides and incubated at 4°C for 2 h. Cells were fixed using Karnovsky’s fixative and serially dehydrated with gradient of ethanol, freeze dried, and platinum coated. ZEISS EV040 (United States) scanning electron microscope was employed to photograph the cells ([Raje et al., 2006]). Spores of A. brassicicola MTCC 2102 were treated with 2X MIC of lipopeptides for 2 h and observed under phase-contrast microscope (Nickon H600L, Japan). […]

[6] = test system: Spores of A. brassicicola MTCC 2102; test: Phase-contrast microscopy of treated spores; assay type: cell-based, Alternaria brassicicola; conditions: A. brassicicola MTCC 2102 spores, 2X MIC, 2 h
Procedure: as §1

[7] = test system: A. brassicicola MTCC 2102; test: Protection of tomato slices and grapes from fungal spores; parameters: species or system Alternaria brassicicola; conditions: 500 μl of 2 mg/ml lipopeptide, then 50 μl spore suspension (10^7 conidia per ml); 25°C, 4 days; three replicates
Procedure: The surface of the tomatoes and grapes was sterilized with 5% NaOCl for 5 min and rinsed three times with plenty of sterile water. After sterilization, tomatoes were cut into slices and wounds of 3 mm were inflicted with a sterile scalpel on the surface of the grapes. Tomato slices and grapes were divided into four groups. Contents of group 1 were treated with water only (negative control). Contents of group 2 were treated with 50 μl of a spore suspension (spores 10^7 conidia per ml) of A. brassicicola MTCC 2102 (positive control without treatment). Contents of group 3 were first treated with 500 μl of 2 mg/ml solution of purified lipopeptides separately and after adsorption of lipopeptides, fungal spores were added. Contents of the fourth group were treated with purified lipopeptides only without addition of fungal spores. Tomato slices and grapes from all four groups were incubated at 25°C under controlled humidity conditions for 4 days and observed. Each treatment was performed with three biological and technical replicates.

| Compound | MIC value ([1]; B. subtilis MTCC 121, NB, 5 × 10^5 CFU/ml, 37°C, OD 600 nm after 24 h, 10–550 μg/ml in 5 μg/ml increments) | Inhibition of S. aureus MTCC 1430 in TLC-based bioautography [2] | Collapse drop assay reaction [3] | Complete killing of cells within 4 h ([4]; C. albicans MTCC 183, 1X MIC) | Complete killing of cells within 4 h ([4]; C. albicans MTCC 183, 2X MIC) | Time to complete killing [4] | Effect on cells (TEM) [5] | Effect on spores (phase-contrast microscopy) [6] | Fungal growth on the surface of treated tomato and grape slices inoculated with spores [7] | MIC value ([1]; MTCC 121, 24 h) | Reduction in growth ([4]; C. albicans MTCC 183, 1X MIC, 4 h) |
| --- | --- | --- | --- | --- | --- | --- | --- | --- | --- | --- | --- |
| Dhb-Tyr-Orn-Ile-Val-Val-Lys-Val-Leu-Asp-Val-Glu [BLL, bogorol like lipopeptide purified from Brevibacillus sp. strain SKDU10; 12 amino acids and C17 hydroxy fatty acid side chain] | 225 to 235 mg/L | active against S. aureus MTCC 1430 | positive reaction | not observed | not observed | ≤ 4 h | irregularities in structure with rupturing of cell wall and lysis | structural irregularity | no fungal growth | – | – |
| CC(C)CCCCCCCCCCCCC(=O)N[C@H](C(=O)NCC(=O)N[C@@H](C)C(=O)N[C@@H](CO)C(=O)N[C@@H](Cc1c[nH]cn1)C(=O)N[C@@H](CCC(N)=O)C(=O)N[C@@H](CCC(N)=O)C(=O)O)[C@@H](C)O [ILL] (X1-TGASHQQ-OH; N-terminus assumed) | – | inhibited S. aureus MTCC 1430 | positive reaction | – | – | 4 h | lysis with accumulation of debris on cell surface, altered morphology, and shrinkage | structural irregularity | no fungal growth | 260 to 270 mg/L | 2 log |
